What was measured:
[1] = test system: SETVI; test: Herbicidal pre-emergence action (Table A5); assay type: in vivo, Setaria viridis; settings: visual grading after ca. 3 weeks
In short: (§1)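 Paired sowings (monocot weed with dicot weed) in potted sandy loam, seeds soil-covered.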

[2] = test system: ECHCG; test: Herbicidal pre-emergence action (Table A2); assay type: in vivo, Echinochloa crus-galli; settings: visual grading after ca. 3 weeks
In short: as §1

[3] = test system: MATIN; test: Herbicidal post-emergence action (Table B6); assay type: in vivo, Matricaria inodora; settings: application rate 1280 g/ha; rated visually after about 3 weeks
Procedure: (§2) Seeds of mono- and dicotyledonous weed plants were placed in plastic pots in sandy loam soil (doubly sown with in each case one species of mono- or dicotyledonous weed plants per pot), covered with soil and cultivated in a greenhouse under controlled growth conditions. 2 to 3 weeks after sowing, the test plants were treated at the one-leaf stage. […] After the test plants had been kept in the greenhouse under optimum growth conditions for about 3 weeks, the activity of the preparations was rated visually in comparison to untreated controls. For example, 100% activity = the plants have died, 0% activity = like control plants.

[4] = test system: ECHCG; test: Herbicidal post-emergence action (Table B3); assay type: in vivo, Echinochloa crus-galli; settings: rated visually after about 3 weeks
In short: (§3)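 Each pot held sandy loam sown with a single mono- or dicot weed species, grown under controlled greenhouse conditions. Test plants were sprayed at the one-leaf stage, and after about 3 weeks of further growth the percentage activity relative to untreated plants was rated visually.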

[5] = test system: POAAN; test: Herbicidal post-emergence action (Table B7); assay type: in vivo, Poa annua; settings: application rate 1280 g/ha
In short: as §3

[6] = test system: LOLRI; test: Herbicidal pre-emergence action (Table A3); assay type: in vivo, Lolium rigidum; settings: application rate 1280 g/ha; visual grading after ca. 3 weeks
In short: as §1

[7] = test system: STEME; test: Herbicidal pre-emergence action (Table A6); assay type: in vivo, Stellaria media; settings: application rate 1280 g/ha; visual grading after ca. 3 weeks
In short: as §1

[8] = test system: POAAN; test: Herbicidal pre-emergence action (Table A7); assay type: in vivo, Poa annua; settings: visual grading after ca. 3 weeks
In short: as §1

[9] = test system: KCHSC; test: Herbicidal pre-emergence action (Table A10); assay type: in vivo, Kochia scoparia; settings: application rate 1280 g/ha; visual grading after ca. 3 weeks
In short: as §1

[10] = test system: AMARE; test: Herbicidal post-emergence action (Table B11); assay type: in vivo, Amaranthus retroflexus; settings: application rate 1280 g/ha
Procedure: as §2

[11] = test system: MATIN; test: Herbicidal pre-emergence action (Table A4); assay type: in vivo, Matricaria inodora; settings: application rate 1280 g/ha; visual grading after ca. 3 weeks
In short: as §1

[12] = test system: VERPE; test: Herbicidal pre-emergence action (Table A11); assay type: in vivo, Veronica persica; settings: application rate 1280 g/ha; visual grading after ca. 3 weeks
Description: (§4) Seeds of mono- and dicotyledonous weed plants were sown in plastic pots (double sowings with one species of mono- and one species of dicotyledonous weed plants per pot), in sandy loam, and covered with soil.

[13] = test system: SETVI; test: Herbicidal post-emergence action (Table B8); assay type: in vivo, Setaria viridis; settings: application rate 1280 g/ha
Procedure: as §2

[14] = test system: VERPE; test: Herbicidal post-emergence action (Table B10); assay type: in vivo, Veronica persica
Procedure: as §2

[15] = test system: ALOMY; test: Herbicidal pre-emergence action (Table A9); assay type: in vivo, Alopecurus myosuroides; settings: application rate 1280 g/ha; visual grading after ca. 3 weeks
Description: as §4

SMILES | pre-emergence activity against SETVI ([1]; application rate 1280 g/ha) [%] | pre-emergence activity against ECHCG ([2]; application rate 1280 g/ha) [%] | post-emergence activity against MATIN [3] [%] | post-emergence activity against ECHCG ([4]; application rate 1280 g/ha) [%] | post-emergence activity against POAAN [5] [%] | pre-emergence activity against LOLRI [6] [%] | pre-emergence activity against STEME [7] [%] | pre-emergence activity against POAAN ([8]; application rate 320 g/ha) [%] | pre-emergence activity against KCHSC [9] [%] | post-emergence activity against AMARE [10] [%] | pre-emergence activity against POAAN ([8]; application rate 1280 g/ha) [%] | pre-emergence activity against MATIN [11] [%] | pre-emergence activity against SETVI ([1]; application rate 320 g/ha) [%] | pre-emergence activity against ECHCG ([2]; application rate 320 g/ha) [%] | pre-emergence activity against VERPE [12] [%] | post-emergence activity against SETVI [13] [%] | post-emergence activity against ECHCG ([4]; application rate 320 g/ha) [%] | post-emergence activity against VERPE ([14]; application rate 320 g/ha) [%] | pre-emergence activity against ALOMY [15] [%] | post-emergence activity against VERPE ([14]; application rate 1280 g/ha) [%]
Cc1ccc(F)c(CN2CCCC3(CCCN(Cc4c(F)ccc(C)c4F)C3=O)C2=O)c1F (racemic) [I-029] | 100 | 100 | 100 | 100 | 90 | 100 | 90 | 90 | – | – | – | – | – | – | – | – | – | – | – | –
O=C1N(Cc2c(F)cccc2F)CCC12CCN(Cc1c(F)cccc1F)C2=O (racemic) [I-101] | 90 | 90 | 90 | 90 | 90 | 90 | – | – | 90 | 90 | 100 | 90 | – | – | – | – | – | – | – | –
O=C1N(Cc2cccc(Cl)c2F)CCCC12CCCN(Cc1cccc(Cl)c1F)C2=O (racemic) [I-007] | – | – | – | – | 90 | 100 | 90 | 100 | – | 90 | – | 90 | 100 | 100 | 90 | 90 | 100 | 90 | 90 | –
O=C1N(Cc2ccccc2)CCCC12CCCN(Cc1c(F)cccc1F)C2=O (racemic) [I-068] | – | – | – | 90 | – | 90 | 90 | 100 | – | 100 | – | – | 100 | 100 | – | – | – | – | – | 90
COc1ccccc1CN1CCCC2(CCCN(Cc3ccccc3Cl)C2=O)C1=O (racemic) [I-095] | 90 | – | – | 90 | – | – | – | – | – | 90 | – | – | – | 100 | – | – | – | – | – | 90
O=C1N(Cc2ccccc2F)CCC12CCN(Cc1ccccc1F)C2=O (racemic) [I-097] | 100 | 90 | – | – | – | 90 | – | – | 90 | 90 | – | 90 | – | – | – | – | – | – | – | –

Reference: patent EP4273147A1, “SUBSTITUTED SPIROLACTAMS, SALTS THEREOF AND THEIR USE AS HERBICIDALLY ACTIVE SUBSTANCES” (Bayer Aktiengesellschaft, priority 2022, dated 2023)
